Experimental data: patent US20230035892A1, “METHODS AND COMPOSITIONS FOR TREATING CANCER” (Flagship Pioneering Innovations V, Inc., priority 2019, published 2023)

Assays:
[1] = tested on: MIAPACA2; experiment: Proliferation, percent viability normalized to DMSO; format: cell-based; details: Homo sapiens, MIA PaCa-2
Source text: The GRK2 small molecule antagonist of Formula III-26 was used to evaluate the effect of a small molecule GRK2 antagonist on the proliferation of pancreatic cancer cell lines Miapaca2, Panc1, BXPC3, PAXF1657, PAXF1997 and Capan1. Values represent percent viability normalized to DMSO.

[2] = tested on: pancreatic cancer cell lines; experiment: Long-term colony formation assay (10-14 days); format: cell-based; details: colony formation 10-14 days
Source text: Different concentrations of the compound of Formula III-26 were then used to evaluate its effect on pancreatic cancer cell line proliferation in a long-term colony formation assay (10-14 days).

Cn1c(CNc2cccc(C(=O)NCc3ccccc3C(F)(F)F)c2)nnc1-c1ccncc1 [Compound of Formula III-26]
viability at 3.333 µM ([1]; Miapaca2, dose 3.333 μM): 86.6% | viability at 10 µM ([1]; Miapaca2, dose 10.000 μM): 66.1% | viability at 30 µM ([1]; Miapaca2, dose 30.000 μM): 40% | Mean intensity ([2]; BXPC3, 0.1 μM): 396.24 | Normalized to DMSO ([2]; BXPC3, 0.1 μM): 0.99 | Mean intensity ([2]; BXPC3, 0.3 μM): 445.015 | Normalized to DMSO ([2]; BXPC3, 0.3 μM): 1.11 | Mean intensity ([2]; BXPC3, 1 μM): 418.98 | Normalized to DMSO ([2]; BXPC3, 1 μM): 1.04 | Mean intensity ([2]; BXPC3, 3 μM): 189.24 | Normalized to DMSO ([2]; BXPC3, 3 μM): 0.47 | Mean intensity ([2]; BXPC3, 10 μM): 82.2 | Normalized to DMSO ([2]; BXPC3, 10 μM): 0.20 | Mean intensity ([2]; BXPC3, 30 μM): 76.19 | Normalized to DMSO ([2]; BXPC3, 30 μM): 0.19 | Mean intensity ([2]; Miapaca, 0.1 μM): 447.5 | Normalized to DMSO ([2]; Miapaca, 0.1 μM): 1.09 | Mean intensity ([2]; Miapaca, 0.3 μM): 461.465 | Normalized to DMSO ([2]; Miapaca, 0.3 μM): 1.13 | Mean intensity ([2]; Miapaca, 1 μM): 398.675 | Normalized to DMSO ([2]; Miapaca, 1 μM): 0.97 | Mean intensity ([2]; Miapaca, 3 μM): 386.35 | Normalized to DMSO ([2]; Miapaca, 3 μM): 0.94 | Mean intensity ([2]; Miapaca, 10 μM): 80.16 | Normalized to DMSO ([2]; Miapaca, 10 μM): 0.20 | Mean intensity ([2]; Miapaca, 30 μM): 75.66 | Normalized to DMSO ([2]; Miapaca, 30 μM): 0.18 | Mean intensity ([2]; PAXF1657, 0.1 μM): 617.13 | Normalized to DMSO ([2]; PAXF1657, 0.1 μM): 0.97 | Mean intensity ([2]; PAXF1657, 0.3 μM): 660.9 | Normalized to DMSO ([2]; PAXF1657, 0.3 μM): 1.04 | Mean intensity ([2]; PAXF1657, 1 μM): 574.375 | Normalized to DMSO ([2]; PAXF1657, 1 μM): 0.90 | Mean intensity ([2]; PAXF1657, 3 μM): 410.77 | Normalized to DMSO ([2]; PAXF1657, 3 μM): 0.64 | Mean intensity ([2]; PAXF1657, 10 μM): 326.68 | Normalized to DMSO ([2]; PAXF1657, 10 μM): 0.51 | Mean intensity ([2]; PAXF1657, 30 μM): 271.275 | Normalized to DMSO ([2]; PAXF1657, 30 μM): 0.43 | Mean intensity ([2]; PAXF1997, 0.1 μM): 461.65 | Normalized to DMSO ([2]; PAXF1997, 0.1 μM): 1.07 | Mean intensity ([2]; PAXF1997, 0.3 μM): 500.34 | Normalized to DMSO ([2]; PAXF1997, 0.3 μM): 1.16 | Mean intensity ([2]; PAXF1997, 1 μM): 455.7 | Normalized to DMSO ([2]; PAXF1997, 1 μM): 1.06 | Mean intensity ([2]; PAXF1997, 3 μM): 379.285 | Normalized to DMSO ([2]; PAXF1997, 3 μM): 0.88 | Mean intensity ([2]; PAXF1997, 10 μM): 296.635 | Normalized to DMSO ([2]; PAXF1997, 10 μM): 0.69 | Mean intensity ([2]; PAXF1997, 30 μM): 288.38 | Normalized to DMSO ([2]; PAXF1997, 30 μM): 0.67 | Mean intensity ([2]; Panc1, 0.1 μM): 477.265 | Normalized to DMSO ([2]; Panc1, 0.1 μM): 1.16 | Mean intensity ([2]; Panc1, 0.3 μM): 478.195 | Normalized to DMSO ([2]; Panc1, 0.3 μM): 1.17 | Mean intensity ([2]; Panc1, 1 μM): 509.365 | Normalized to DMSO ([2]; Panc1, 1 μM): 1.24 | Mean intensity ([2]; Panc1, 3 μM): 504.735 | Normalized to DMSO ([2]; Panc1, 3 μM): 1.23 | Mean intensity ([2]; Panc1, 10 μM): 254.47 | Normalized to DMSO ([2]; Panc1, 10 μM): 0.62 | Mean intensity ([2]; Panc1, 30 μM): 181.7 | Normalized to DMSO ([2]; Panc1, 30 μM): 0.44
